Measurements taken from patent publication US6809092B2, “Benezene-fused heteroring derivatives and pharmaceutical agents comprising the same as active ingredient” (Ono Pharmaceutical Co., Ltd., priority 2000, dated 2004).

Columns and labels:
Type in all cases: biochemical
[1] = biological target: cathepsin L (Homo sapiens, UniProt P07711); test: Measurement of cathepsin L inhibitory activity
Procedure: (iv) Measurement of Cathepsin L Inhibitory Activity
5 μL of Synthesized substrate (carbobenzoxy-L-phenylalanyl-L-arguine-4-methyl-chromanyl-7-amide or L-prolyl-L-phenylalanyl-L-arguinine-4-methyl-chromanyl-7-amide) solution and 5 μL of cysteine protease inhibitor solution of several concentrations, 80 μL of cathepsin L enzyme reaction buffer (400 mmol/L acetic acid, 4 mmol/L EDTA, 8 mmol/L DTT were mixed to adjust to pH 5.5) and 10 μL of cathepsin L enzyme solution were mixed and the increase of fluorescence intensity was measured (λ ex (excitation wavelength)=355 nm, λ em (fluorescence wavelength)=460 nm) when reacted at 37° C.
For example, the inhibitory activity of the compound of example 22(4) was 97% at 1 μM.

[2] = biological target: T1, cathepsin K (Homo sapiens, UniProt P43235); test: Measurement of cathepsin K inhibitory activity; details: Dixon plot, pH 5.5, 37° C.
T1 sequence (P43235 115-329): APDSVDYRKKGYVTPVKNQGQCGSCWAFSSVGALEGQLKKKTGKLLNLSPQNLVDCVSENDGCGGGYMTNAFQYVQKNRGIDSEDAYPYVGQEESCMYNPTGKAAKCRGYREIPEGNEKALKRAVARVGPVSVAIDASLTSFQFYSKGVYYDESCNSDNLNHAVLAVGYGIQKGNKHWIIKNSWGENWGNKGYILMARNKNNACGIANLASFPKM
Procedure: (i) Measurement of Cathepsin K Inhibitory Activity
65 μL of Cathepsin K enzyme reaction buffer (50 mmol/L of 2-(N-morpholino)ethanesulfonate, 2 mmol/L of ethylenediamine tetraacetate (EDTA) and 4 mmol/L of dithiothreitol (DTT) were mixed to adjust to pH 5.5), 5 μL of cysteine protease inhibitor solution of several concentrations, 20 μL of synthesized substrate (t-butyloxycarbonyl-L-alanyl-glycyl-L-prolyl-L-arginine-4-methyl-chromanyl-7-amide) solution of several concentrations and 10 μL of cathepsin K enzyme solution were mixed and the increase of fluorescence intensity when reacted at 37° C. was measured (λ ex (excitation wavelength)=355 nm, λ em (fluorescence wavelength)=460 nm). As to the substrate and the compound of the present invention, enzyme reactions were carried out in combination of several appropriate concentrations and Dixon plotting was prepared, to define the absolute value of X-coordinate of the intersection point of the graph as Ki value.

[3] = biological target: cathepsin S (Homo sapiens, UniProt P25774); test: Measurement of cathepsin S inhibitory activity
Procedure: (iii) Measurement of Cathepsin S Inhibitory Activity
10 μL of synthesized substrate (carbobenzoxy-L-leucyl-L-leucyl-L-arguinine-4-methyl-chromanyl-7-amide) solution and 5 μL of cysteine protease inhibitor solution of several concentrations, 75 μL of cathepsin S enzyme reaction buffer (100 mmol/L of sodium phosphate, 2 mmol/L of EDTA, 2 mmol/L of DTT were mixed to adjust to pH 6.5) and 10 μL of cathepsin S enzyme solution were mixed and the increase of fluorescence intensity was measured (λ ex(excitation wavelength)=355 nm, λ em (fluorescence wavelength)=460 nm) when reacted at 37° C.
It was confirmed that the compound of the present invention of formula (I) has an inhibitory effect more than 50% at 10 μM. For example, the inhibitory activity of the compound of example 18 was 98% at 1 μM.

[4] = biological target: cathepsin B (Homo sapiens, UniProt P07858); test: Measurement of cathepsin B inhibitory activity
Procedure: (ii) Measurement of Cathepsin B Inhibitory Activity
10 μL of Synthesized substrate (carbobenzoxy-L-arginyl-L-arginine-4-methyl-chromanyl-7-amide or carbobenzoxy-L-phenylalanyl-L-arginine-4-methyl-chromanyl-7-amide) solution of several concentrations, 10 μL of cysteine protease inhibitor solution of several concentrations, 70 μL of cathepsin B enzyme reaction buffer (mixture of 400 mmol/L in acetic acid, 4 mmol/L EDTA, 8 mmol/L DDT to adjust to pH 5.5) and 10 μL of cathepsin B enzyme solution were mixed and the increase of fluorescence intensity was measured (λ ex (excitation wavelength)=355 nm, μ em (fluorescence wavelength)=460 nm) when reacted at 37° C.
For example, the inhibitory activity of the compound of example 10 was 95% at 1 μM.

Sequence of cathepsin L (P07711 114-333, species assumed): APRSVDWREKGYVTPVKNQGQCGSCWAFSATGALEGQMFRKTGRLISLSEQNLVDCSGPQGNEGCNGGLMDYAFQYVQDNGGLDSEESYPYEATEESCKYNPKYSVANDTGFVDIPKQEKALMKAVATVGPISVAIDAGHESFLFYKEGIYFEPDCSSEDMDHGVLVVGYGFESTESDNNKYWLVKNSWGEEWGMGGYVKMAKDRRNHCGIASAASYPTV
Sequence of cathepsin S (P25774 115-331, species assumed): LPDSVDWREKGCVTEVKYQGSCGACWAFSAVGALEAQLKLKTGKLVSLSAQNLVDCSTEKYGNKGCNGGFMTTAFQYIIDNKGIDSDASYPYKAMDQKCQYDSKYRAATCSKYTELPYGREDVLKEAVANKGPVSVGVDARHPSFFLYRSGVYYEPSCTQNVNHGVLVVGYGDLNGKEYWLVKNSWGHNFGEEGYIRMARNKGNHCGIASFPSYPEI

Ki [2] [nM]	Structure (SMILES)	other results
	CC(C)C[C@H](NC(=O)[C@H](CC(C)C)NC(=O)OCc1ccccc1)C(=O)CN1CCN(C(C)C)c2ccccc2C1 [example 22(4), (2S)-N-[(3S)-5-methyl-1-(1-isopropyl-2,3,4,5-tetrahydro-1H-1,4-benzodiazepin-4-yl)-2-oxo-3-hexyl]-2-benzyloxycarbonyl amino-4-methylpentanamide]	inhibition at 1 µM [1]: 97%
170	CC(C)C[C@H](NC(=O)[C@@H]1CCCC[C@@H]1NC(=O)c1ccccc1)C(=O)CN1CCCc2ccccc2C1 [example 3]	
100	CC(C)C[C@H](NC(=O)[C@H](CC(C)C)NC(=O)OCc1ccccc1)C(=O)CN1CCCc2ccccc2C1 [3(14), (2S)-N-[(3S)-5-methyl-2-oxo-1-(1,3,4,5-tetrahydro-2H-2-benzazepin-2-yl)-3-hexyl]-4-methyl-2-benzyloxycarbonylamino pentanamide]	
	CC(C)CC(NC(=O)[C@H](CC(C)C)NC(=O)OCc1ccccc1)C(=O)CN1CCCc2cc(O)ccc2C1 (stereo partly drawn) [example 18]	inhibition at 1 µM [3]: 98%
81	CC(C)C[C@H](NC(=O)[C@H](CC(C)C)NC(=O)OCc1ccccc1)C(=O)CN1CCSc2ccccc2C1 [example 31, (2S)-N-[(3S)-5-methyl-2-oxo-1-(2,3,4,5-tetrahydro-1,4-benzothiazepin-4-yl)-3-hexyl]-2-benzyloxycarbonylamino-4-methylpentanamide]	
	CC(C)C[C@H](NC(=O)[C@@H]1CCCC[C@@H]1NC(=O)c1ccccc1)C(=O)CN1CCCCc2ccccc21 [example 10]	inhibition at 1 µM [4]: 95%
